Source: PMC3574584 (Journal of medicinal chemistry, 2013)

Key:
TC-PTP = molecular target: T1, TC-PTP (Homo sapiens, UniProt P17706); assay: PTP selectivity pNPP assay, TC-PTP; format: biochemical, mammalian
T1 sequence (P17706 1-415): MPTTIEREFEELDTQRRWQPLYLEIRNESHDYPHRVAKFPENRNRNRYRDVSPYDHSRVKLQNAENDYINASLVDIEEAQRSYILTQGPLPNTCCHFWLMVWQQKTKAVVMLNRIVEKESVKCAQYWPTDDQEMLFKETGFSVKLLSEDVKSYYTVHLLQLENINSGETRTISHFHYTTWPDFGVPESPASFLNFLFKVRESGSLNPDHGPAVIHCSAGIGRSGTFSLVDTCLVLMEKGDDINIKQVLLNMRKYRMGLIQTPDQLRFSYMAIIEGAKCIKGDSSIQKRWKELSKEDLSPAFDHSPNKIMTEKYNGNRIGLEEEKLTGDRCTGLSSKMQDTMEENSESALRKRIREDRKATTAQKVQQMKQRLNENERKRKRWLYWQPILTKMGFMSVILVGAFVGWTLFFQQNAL

mPTPB = molecular target: T2, mPTPB (Mycobacterium tuberculosis, UniProt I6WXK4); format: biochemical
T2 sequence (I6WXK4 1-276): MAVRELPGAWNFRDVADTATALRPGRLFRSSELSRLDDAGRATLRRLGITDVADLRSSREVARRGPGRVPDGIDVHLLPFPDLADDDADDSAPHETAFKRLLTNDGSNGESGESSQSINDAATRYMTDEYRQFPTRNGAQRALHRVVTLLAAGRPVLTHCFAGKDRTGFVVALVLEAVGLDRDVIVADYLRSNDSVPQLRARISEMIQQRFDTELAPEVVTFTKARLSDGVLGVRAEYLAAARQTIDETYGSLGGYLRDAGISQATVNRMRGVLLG

Structure (SMILES): O=C(O)c1cc2c(C#Cc3ccc(F)cc3F)c(-c3ccccc3)oc2cc1O [Compound 4e, 3-((2,4-difluorophenyl)ethynyl)-6-hydroxy-2-phenylbenzofuran-5-carboxylic acid]
- IC50 (TC-PTP): 9 ± 0.5 µM

Structure (SMILES): O=C(O)c1cc2c(C#Cc3cccc(C(F)(F)F)c3)c(-c3ccccc3)oc2cc1O [Compound 4g, 6-hydroxy-2-phenyl-3-((3-(trifluoromethyl)phenyl)ethynyl)benzofuran-5-carboxylic acid]
- mode of mPTPB inhibition (mPTPB): reversible and noncompetitive

Structure (SMILES): O=C(O)c1cc2c(C#Cc3cc(F)cc(F)c3)c(-c3ccccc3)oc2cc1O [Compound 4f, 3-((3,5-difluorophenyl)ethynyl)-6-hydroxy-2-phenylbenzofuran-5-carboxylic acid]
- decrease in IC50 for mPTPB compared to 4b (mPTPB): 3.3 fold
